For one compound, IC50 results are on record in patent publication US5098932A, “Cyclic ether derivatives” (Imperial Chemical Industries PLC, ICI Pharma, priority 1988, dated 1992).

The structures appear in SMILES notation.

Experiment [1] deals with 5-LO (LTB4). Nature of the experiment: In vitro heparinised human blood assay, A23187 challenge, LTB4 radioimmunoassay, test b). The format is cell-based. As to the method: (§1) b) An in vitro assay system involving incubating a test compound with heparinised human blood, prior to challenge with the calcium ionophore A23187 and then indirectly measuring the inhibitory effects on 5-LO by assaying the amount of LTB4 using the specific radioimmunoassay described by Carey and Forder (F. Carey and R. A. Forder, Brit. J. Pharmacol. 1985, 84, 34P) which involves the use of a protein-LTB4 conjugate produced using the procedure of Young et alia (Prostaglandins, 1983, 26(4),605-613). The effects of a test compound on the enzyme cyclooxygenase (which is involved in the alternative metabolic pathway for arachidonic acid and gives rise to prostaglandins, thromboxanes and related metabolites) may be measured at the same time using the specific radioimmunoassay for thromboxane B2 (T×B2) described by Carey and Forder (see above). This test provides an indication of the effects of a test compound against 5-LO and also cyclooxygenase in the presence of blood cells and proteins. It permits the selectivity of the inhibitory effect on 5-LO or cyclooxygenase to be assessed.

Experiment [2] deals with cyclooxygenase (TxB2). Nature of the experiment: In vitro heparinised human blood assay, A23187 challenge, TxB2 radioimmunoassay, test b). Type of experiment: cell-based. As to the method:
as §1

By IC50 is commonly meant the point on the concentration scale where inhibition reaches its midpoint. As for `CCC1(c2cccc(OCc3ccc4ccccc4c3)c2)COC(C)(C)O1` (centres unmarked) [4-ethyl-2,2-dimethyl-4-[3-(naphth-2-ylmethoxy)phenyl]-1,3-dioxolane], the values for the IC50 in experiment [1] and in experiment [2] were 100 nM and greater than 40000 nM, respectively.
